Patent publication US9630941B2 (priority 2008, dated 2017)
“Also recorded” adds a separate entry of the source.

Legend:
[1] = Aqueous solubility, pH dependent; type: physicochemical
[2] = Chemical stability pH dependent at 25° C.; type: physicochemical
Method: B. Chemical Stability pH Dependent at 25° C.

[3] = Thermal stability, 120° C. for 10 min; type: physicochemical; settings: for CBN content of the sample after heating / Drug remaining / Drug remaining (%) / THC content of the sample after heating: 120° C. for 10 min; for Drug remaining (%): % of initial; for CBN content of the sample, initial / Initial, μg (drug itself) / THC content of the sample, initial: before heating
Method: C. Thermal Stability—120° C. for 10 min.

[4] = Plasma THC from HME buccal patches in swine model; type: in vivo; settings: swine
Method: THC was used as control formulation. Plasma was sampled from each animal at predetermined times and the amount of THC in the plasma was determined.
FIG. 20: Plasma THC concentrations as a function of time from THC-Val-HS loaded HME buccal patches. Data represents the mean value from 4 pigs. The animals were maintained under anesthesia for the first 4 hours and were then allowed to come out of anesthesia and given access to food and water.
A dose dependent plasma concentration time profile was then evaluated.
Plasma THC concentrations as a function of time and dose from THC-Val-HS loaded HME patches. Data represents the mean value. The animals for maintained under anesthesia for the first 4 hours and were then allowed to come out of anesthesia and given access to food and water.

[5] = test system: intraocular pressure (IOP) induced model of glaucoma; test: Rabbit glaucoma model, IOP lowering after topical instillation; settings: THC in Tocrisolve, 50 μL topical
[6] = In vivo ocular bioavailability of THC after topical formulations; settings: for concentration at 1 h: male, New Zealand albino, rabbit, topical
[7] = Bioreversion: plasma stability, porcine plasma; type: in vitro ADME
[8] = Bioreversion: plasma stability, rabbit plasma; type: in vitro ADME
[9] = Porcine buccal tissue homogenate stability; type: in vitro ADME; settings: protein concentration 2 mg/ml
Method: (§1) b. Porcine Buccal Tissue Homogenate Stability
(§2) Protein Concentration 2 mg/ml

[10] = Control (IPBS) stability for the buccal homogenate study; type: physicochemical
Method: as §1, §2

CCCCCc1cc(O)c2c(c1)OC(C)(C)C1CCC(C)=CC21 (stereo not shown) [THC, Δ^9-Tetrahydrocannabinol, reference compound]
solubility ([1]; aqueous medium at pH 2, pH 2, aqueous buffer): 0.95 µg/mL | solubility ([1]; aqueous medium at pH 3, pH 3, aqueous buffer): 2.23 µg/mL | solubility ([1]; aqueous medium at pH 4, pH 4, aqueous buffer): 1.27 µg/mL | solubility ([1]; aqueous medium at pH 5, pH 5, aqueous buffer): 2.23 µg/mL | solubility ([1]; aqueous medium at pH 6, pH 6, aqueous buffer): 2.23 µg/mL | solubility ([1]; aqueous medium at pH 7, pH 7, aqueous buffer): 2.23 µg/mL | solubility ([1]; aqueous medium at pH 8, pH 8, aqueous buffer): 2.23 µg/mL | solubility ([1]; aqueous medium, pH 3, aqueous buffer): 2.23 µM | solubility ([1]; aqueous medium, pH 4, aqueous buffer): 1.27 µM | solubility ([1]; aqueous medium, pH 5, aqueous buffer): 2.23 µM | solubility ([1]; aqueous medium, pH 6, aqueous buffer): 2.23 µM | solubility ([1]; aqueous medium, pH 7, aqueous buffer): 2.23 µM | solubility ([1]; aqueous medium, pH 8, aqueous buffer): 2.23 µM | solubility ([1]; pH 2, aqueous buffer): 0.95 µM | solubility ([1]; water): 2.23 µM | solubility ([1]; water, H20): 2.23 µg/mL | First order rate constant ([2]; Buffer pH 5.0, 25° C.): 0.017 h⁻¹ | First order rate constant ([2]; Buffer pH 7.0, 25° C.): 0.0098 h⁻¹ | Drug loading (%) [3]: 85.38 ± 7.25% | CBN content of the sample after heating [3]: 53.85 ± 1.60 µg | Drug remaining [3]: 1214.10 ± 39.12 µg | Drug remaining (%) [3]: (95.05 ± 5.05) % | CBN content of the sample, initial [3]: 56.76 ± 4.86 µg | Initial, μg (drug itself) [3]: 1280.70 ± 108.77 µg | Transbuccal systemic bioavailability of THC ([4]; THC loaded HME patch): no bioavailability; also recorded: extremely poor | THC levels in plasma from transmucosal HME patches ([4]; buccal patch): No THC levels were detected | maximum observed effect, drop in IOP from baseline [5]: 40% | time for IOP to return to 90% of baseline [5]: ≤ 2 h | time to maximum effect post topical application [5]: ≤ 30 min | THC concentrations in aqueous humor, iris-ciliary bodies / anterior segment ocular tissues ([6]; 1 hour post topical application): not observed | concentration at 1 h ([6]; cornea, 50 μL of 0.1% w/v THC): 1380 ng/g | concentration at 1 h ([6]; cornea, 50 μL of 0.37% w/v THC): 6010 ng/g | concentration at 1 h ([6]; sclera, 50 μL of 0.1% w/v THC): 416 ng/g | concentration at 1 h ([6]; sclera, 50 μL of 0.37% w/v THC): 684 ng/g

CCCCCc1cc(OC(=O)C(N)CC(C)C)c2c(c1)OC(C)(C)C1CCC(C)=CC21 (stereo not shown) [THC-Leucinate (8), Δ^9-THC-leucinate]
Aqueous Solubility ([1]; pH 1.2): 9.36 ± 0.11 µg/mL | Aqueous Solubility ([1]; pH 1.2, listed as THC-Leucine): 21.89 ± 0.26 µM | Aqueous Solubility ([1]; pH 2): 23.71 ± 0.40 µg/mL | Aqueous Solubility ([1]; pH 2, listed as THC-Leucine): 55.46 ± 0.93 µM | Aqueous Solubility ([1]; pH 3): 5.17 ± 0.60 µg/mL | Aqueous Solubility ([1]; pH 3, listed as THC-Leucine): 12.08 ± 1.40 µM | Aqueous Solubility ([1]; pH 4): 1.95 ± 0.09 µg/mL | Aqueous Solubility ([1]; pH 4, listed as THC-Leucine): 4.33 ± 0.20 µM | Aqueous Solubility ([1]; pH 5): 0.23 ± 0.03 µg/mL | Aqueous Solubility ([1]; pH 5, listed as THC-Leucine): 0.54 ± 0.06 µM | Aqueous Solubility ([1]; pH 6): 0.08 ± 0.01 µg/mL | Aqueous Solubility ([1]; pH 6, listed as THC-Leucine): 0.19 ± 0.02 µM | First order rate constant ([2]; Buffer pH 5.0, 25° C.): 15.94 ± 3.38 ×10^−3 h^−1 | First order rate constant ([2]; Buffer pH 7.0, 25° C.): 85.91 ± 16.83 ×10^−3 h^−1 | First order rate constant ([2]; Buffer pH 9.0, 25° C.): 119.98 ± 33.51 ×10^−3 h^−1 | First order rate constant ([2]; Water, 25° C.): 8.51 ± 2.80 ×10^−3 h^−1 | Drug loading (%) [3]: 103.65 ± 4.12% | CBN content of the sample after heating [3]: 20.27 ± 0.43 µg | Drug remaining [3]: 1383.29 ± 40.73 µg | THC content of the sample after heating [3]: 25.86 ± 0.83 µg | Drug remaining (%) [3]: (88.99 ± 0.92) % | CBN content of the sample, initial [3]: 16.34 ± 0.50 µg | Initial, μg (drug itself) [3]: 1554.80 ± 61.76 µg | THC content of the sample, initial [3]: -6.13 ± 0.84 µg | K [7]: 42.70 ± 3.58 ×10^−2 min^−1 | T1/2 [7]: 1.629 ± 0.137 min | K [8]: 33.84 ± 10.92 ×10^−2 min^−1 | T1/2 [8]: 2.160 ± 0.697 min | K [9]: 22.98 ± 1.49 ×10^−3 min^−1 | T1/2 [9]: 30.21 ± 1.95 min | K [10]: 5.49 ± 0.46 ×10^−3 min^−1

CCCCCc1cc(OC(=O)C(N)C(C)C)c2c(c1)OC(C)(C)C1CCC(C)=CC21 (stereo not shown) [THC-Valinate (6), Δ^9-THC-valinate]
Aqueous Solubility ([1]; H20): 0.05 µg/mL | Aqueous Solubility ([1]; pH 1.2): 32.16 ± 0.27 µg/mL | Aqueous Solubility ([1]; pH 1.2, listed as THC-Valine): 78.23 ± 0.66 µM | Aqueous Solubility ([1]; pH 2): 53.66 ± 10.30 µg/mL | Aqueous Solubility ([1]; pH 2, listed as THC-Valine): 147.35 ± 24.90 µM | Aqueous Solubility ([1]; pH 3): 28.76 ± 0.14 µg/mL | Aqueous Solubility ([1]; pH 3, listed as THC-Valine): 69.78 ± 0.33 µM | Aqueous Solubility ([1]; pH 4): 10.34 ± 0.53 µg/mL | Aqueous Solubility ([1]; pH 4, listed as THC-Valine): 24.10 ± 1.28 µM | Aqueous Solubility ([1]; pH 5): 1.27 ± 0.25 µg/mL | Aqueous Solubility ([1]; pH 5, listed as THC-Valine): 3.51 ± 0.62 µM | Aqueous Solubility ([1]; pH 6): 0.07 ± 0.00 µg/mL | Aqueous Solubility ([1]; pH 6, listed as THC-Valine): 0.17 ± 0.00 µM | First order rate constant ([2]; Buffer pH 5.0, 25° C.): 4.06 ± 0.01 ×10^−3 h^−1 | First order rate constant ([2]; Buffer pH 7.0, 25° C.): 47.13 ± 1.16 ×10^−3 h^−1 | First order rate constant ([2]; Buffer pH 9.0, 25° C.): 67.64 ± 7.67 ×10^−3 h^−1 | First order rate constant ([2]; Water, 25° C.): 23.70 ± 0.77 ×10^−3 h^−1 | Drug loading (%) [3]: 104.67 ± 2.22% | CBN content of the sample after heating [3]: 8.79 ± 2.43 µg | Drug remaining [3]: 1440.57 ± 46.34 µg | THC content of the sample after heating [3]: 74.35 ± 5.26 µg | Drug remaining (%) [3]: (91.80 ± 4.90) % | CBN content of the sample, initial [3]: 8.27 ± 1.68 µg | Initial, μg (drug itself) [3]: 1570.09 ± 33.27 µg | THC content of the sample, initial [3]: 61.91 ± 9.49 µg | K [7]: 91.16 ± 10.91 ×10^−2 min^−1 | T1/2 [7]: 0.766 ± 0.092 min | K [8]: 61.94 ± 6.01 ×10^−2 min^−1 | T1/2 [8]: 1.124 ± 0.109 min | K [9]: 16 ± 0.19 ×10^−3 min^−1 | T1/2 [9]: 43.30 ± 0.51 min | K [10]: 3.66 ± 0.68 ×10^−3 min^−1
